Data taken from US9872875B2, “Component and method for treating viral disease” (Institut Pasteur of Shanghai, Chinese Academy of Sciences, priority 2012, dated 2018).

Legend:
[1] = system: EV71 clinical isolate (EV71 FY 573); experiment: EV71 plaque forming units in RD cells; assay type: cell-based, Enterovirus 71; conditions: Enterovirus A, EV71 FY 573, 5-7 days, read-out: EC50 to reduce EV71 PFU in RD cells
Method: EV71 (clinical isolate of EV71 FY 573) was used to infect RD cells cultured in 12-well plates at different E02 concentrations. After cultured for 5 to 7 days, stained and plaque forming units were calculated. Procedures are detailed as follows:
(1) Cell seeding: 24 h prior to infection, RD cells were seeded in 12-well cell culture plates, 2×10^5 cells per well.
(2) Infection of cells: • a. Virus pre-incubated with drug: virus stock solution was in 10-fold serially diluted with DMEM to 50,000 PFU/ml, 5,000 PFU/ml, and 500 PFU/ml; and dispensed to 12-well plates at 500 μl per well, and 56 μl of E02 dissolved in DMEM at corresponding concentration was added, and incubated at 37° C. for 1 h; • b. Cells pre-incubated with drug: cell culture medium was removed from 12-well plates, each well was added 500 μl DMEM, then added 56 μl of E02 solution at corresponding concentration, and incubated at 37° C. for 1 h; • c. After 1 h incubation, drug was discarded from cell culture plates, 556 μl of virus pre-incubated with drug was transferred to cell culture plates, and incubated at 37° C. for 1 h; • d. […]
(3) After cultured for 5-7 days, gels were removed, stained with crystal violet, washed once with PBS, plaque numbers recorded and plaque forming units calculated.

[2] = system: Coxsackie virus A16 (CVA16); experiment: Coxsackie virus A16 TCID50 in RD cells; assay type: cell-based
Description: Coxsackie virus A16 in 10-fold serial dilutions were used to infect RD cells at different E02 concentrations. After cultured for 2 days, CPE was observed under optical microscope, and stained with crystal violet, to calculate 50% tissue culture infective dose. Specific procedures were the same as the TCID50 testing method of Example 1.

CVA16 = CVA16 infection in ICR newborn mice, viral RNA in tissues and serum; assay type: in vivo; conditions: 50 mg/kg of E02 intraperitoneally; 6 days after infection
Method: 5×10^6 TCID50 CVA16 viruses (50 μl) were injected to infect two three-day-old ICR newborn mice. Five days after infection, serum and tissues (brain, bone marrow, heart, intestine, kidney, liver, lung, muscle, spleen, and thymus) were collected. Viral RNA in serum was extracted (viral RNA extraction kit, QIAGEN QIAamp Viral RNA Mini Kit, cat #52906). Tissue samples were placed in RNAstore preservation solution (Tiangen, DP408-02) and stored in −80° C. refrigerator. Total tissue RNA was extracted using tissue RNA extraction kit (RNAprep pure total animal tissue RNA extraction kit). Copies of CVA16 viral genome and GAPDH gene were detected using one-step real-time quantitative RT-PCR kit (QIAGEN QuantiTect SYBR Green RT-PCR Kit) in ABI 7900HT 384-well plate PCR system. Primers are the same as that of EV71 5′UTR primers. See Table 3 and Table 4 for reaction system and PCR program. See FIG. 8 for relative viral load in each tissue and serum. Clearly, CVA16 virus was detected mainly in brain, spinal cord, muscle, and serum.
Three-day-old ICR newborn mice were infected with CVA16 to test E02's efficacy to inhibit EV71 in vivo. Test mice were divided into three groups: drug group, infection group, and placebo group. […] RNA from tissues and serum were extracted and CVA16 viral RNA determined Treatment procedures were the same as previously described in “1.”

[3] = Toxicity in ICR newborn mice; assay type: in vivo; conditions: 50 mg/kg or 20 mg/kg intraperitoneally daily for 4 consecutive days
Method: Three-day-old ICR mice were injected intraperitoneally and daily with 50 μl of E02 at a dose of 50 mg/kg, 20 mg/kg, or 50 μl of DMEM for 4 consecutive days.

[4] = system: EV71 clinical isolate SH-RS; experiment: EV71 SH-RS PFU in RD cells; assay type: cell-based, Enterovirus 71; conditions: Enterovirus A, 168 h, 5~7 days, read-out: EC50 to reduce EV71 SH-RS PFU in RD cells
Method: RD cells cultured in 12-well plates were infected with EV71 SH-TS or SH-RS at different E02 concentrations. After cultured for 5˜7 days, cells were stained and plaque-forming units were calculated. Same procedure is as detailed in “3. E02 reduces EV71 plaque forming units in RD cells” of Example 1.

Structure (SMILES): Cc1ccc(C(=O)Nc2ccc(S(=O)(=O)O)c3cc(S(=O)(=O)O)cc(S(=O)(=O)O)c23)cc1NC(=O)c1cccc(NC(=O)Nc2cccc(C(=O)Nc3cc(C(=O)Nc4ccc(S(=O)(=O)O)c5cc(S(=O)(=O)O)cc(S(=O)(=O)O)c45)ccc3C)c2)c1 [E02, Suramin Sodium]
- EC50 [1]: 2.6 µM
- effect on CVA16 TCID50 in RD cells ([2]; 10 μM of E02): CVA16 TCID50 reduction
- CVA16 titer in RD cells ([2]; 25 μM of E02, reduced from 1×10^9 TCID50/ml, 2 days): 1×10^4 TCID50/ml
- CVA16 RNA in brain, bone marrow, muscle and serum (CVA16): significantly decreased
- toxicity in three-day-old ICR mice [3]: No toxicity was observed
- EC50 [4]: 3.47 µM
